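Grown in 96-well plates, cells were treated for 48 hours with each compound at five concentrations. Insufficient inhibition: endpoint recorded as highest concentration tested. TGI denotes the concentration required for complete inhibition of growth.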
Key:
Experiment in all cases: growth of human tumour cells (NCI), 48 h
786-0 renal = test system: 786-0 renal
A498 renal = test system: A498 renal
A549 NSCLC = test system: A549 NSCLC
ACHN renal = test system: ACHN renal
CAKI-1 renal = test system: CAKI-1 renal
CCRF-CEM leukemia = test system: CCRF-CEM leukemia
COLO 205 colon = test system: COLO 205 colon
DU-145 prostate = test system: DU-145 prostate
EKVX NSCLC = test system: EKVX NSCLC
HCC-2998 colon = test system: HCC-2998 colon
HCT-116 colon = test system: HCT-116 colon
HCT-15 colon = test system: HCT-15 colon
HL-60(TB) leukemia = test system: HL-60(TB) leukemia
HOP-62 NSCLC = test system: HOP-62 NSCLC
HS 578T breast = test system: HS 578T breast
HT29 colon = test system: HT29 colon
IGROV1 ovarian = test system: IGROV1 ovarian
K-562 leukemia = test system: K-562 leukemia
KM12 colon = test system: KM12 colon
LOX IMVI melanoma = test system: LOX IMVI melanoma
M14 melanoma = test system: M14 melanoma
MALME-3M melanoma = test system: MALME-3M melanoma
MCF7 breast = test system: MCF7 breast
MDA-MB-231 breast = test system: MDA-MB-231 breast
MDA-MB-435 = test system: MDA-MB-435
MDA-N = test system: MDA-N
MOLT-4 leukemia = test system: MOLT-4 leukemia
NCI-H226 lung = test system: NCI-H226 lung
NCI-H23 lung = test system: NCI-H23 lung
NCI-H460 lung = test system: NCI-H460 lung
NCI/ADR-RES ovarian = test system: NCI/ADR-RES ovarian
OVCAR-3 ovarian = test system: OVCAR-3 ovarian
OVCAR-4 ovarian = test system: OVCAR-4 ovarian
OVCAR-5 ovarian = test system: OVCAR-5 ovarian
OVCAR-8 ovarian = test system: OVCAR-8 ovarian
PC-3 prostate = test system: PC-3 prostate
RPMI-8226 leukemia = test system: RPMI-8226 leukemia
RXF 393 renal = test system: RXF 393 renal
SF-268 CNS = test system: SF-268 CNS
SF-295 CNS = test system: SF-295 CNS
SF-539 CNS = test system: SF-539 CNS
SK-MEL-28 melanoma = test system: SK-MEL-28 melanoma
SK-MEL-5 melanoma = test system: SK-MEL-5 melanoma
SK-OV-3 ovarian = test system: SK-OV-3 ovarian
SN12C renal = test system: SN12C renal
SNB-19 CNS = test system: SNB-19 CNS
SNB-75 CNS = test system: SNB-75 CNS
SR leukemia = test system: SR leukemia
SW-620 colon = test system: SW-620 colon
TK-10 renal = test system: TK-10 renal
U251 CNS = test system: U251 CNS
UACC-257 melanoma = test system: UACC-257 melanoma
UACC-62 melanoma = test system: UACC-62 melanoma
UO-31 renal = test system: UO-31 renal
HOP-92 NSCLC = test system: HOP-92 NSCLC
NCI-H522 lung = test system: NCI-H522 lung
SK-MEL-2 melanoma = test system: SK-MEL-2 melanoma
T-47D breast = test system: T-47D breast

Compound: O=[N+]([O-])c1ccc(/C=C/c2cc(-c3ccccc3)nc3ccc4ccccc4c23)cc1
- TGI (786-0 renal): > 100 µM
- TGI (A498 renal): > 100 µM
- TGI (A549 NSCLC): > 100 µM
- TGI (ACHN renal): > 100 µM
- TGI (CAKI-1 renal): > 100 µM
- TGI (CCRF-CEM leukemia): > 100 µM
- TGI (COLO 205 colon): > 100 µM
- TGI (DU-145 prostate): > 100 µM
- TGI (EKVX NSCLC): > 100 µM
- TGI (HCC-2998 colon): > 100 µM
- TGI (HCT-116 colon): > 100 µM
- TGI (HCT-15 colon): > 100 µM
- TGI (HL-60(TB) leukemia): > 100 µM
- TGI (HOP-62 NSCLC): > 100 µM
- TGI (HS 578T breast): > 100 µM
- TGI (HT29 colon): > 100 µM
- TGI (IGROV1 ovarian): > 100 µM
- TGI (K-562 leukemia): > 100 µM
- TGI (KM12 colon): > 100 µM
- TGI (LOX IMVI melanoma): > 100 µM
- TGI (M14 melanoma): > 100 µM
- TGI (MALME-3M melanoma): > 100 µM
- TGI (MCF7 breast): > 100 µM
- TGI (MDA-MB-231 breast): > 100 µM
- TGI (MDA-MB-435): > 100 µM
- TGI (MDA-N): > 100 µM
- TGI (MOLT-4 leukemia): > 100 µM
- TGI (NCI-H226 lung): > 100 µM
- TGI (NCI-H23 lung): > 100 µM
- TGI (NCI-H460 lung): > 100 µM
- TGI (NCI/ADR-RES ovarian): > 100 µM
- TGI (OVCAR-3 ovarian): > 100 µM
- TGI (OVCAR-4 ovarian): > 100 µM
- TGI (OVCAR-5 ovarian): > 100 µM
- TGI (OVCAR-8 ovarian): > 100 µM
- TGI (PC-3 prostate): > 100 µM
- TGI (RPMI-8226 leukemia): > 100 µM
- TGI (RXF 393 renal): > 100 µM
- TGI (SF-268 CNS): > 100 µM
- TGI (SF-295 CNS): > 100 µM
- TGI (SF-539 CNS): > 100 µM
- TGI (SK-MEL-28 melanoma): > 100 µM
- TGI (SK-MEL-5 melanoma): > 100 µM
- TGI (SK-OV-3 ovarian): > 100 µM
- TGI (SN12C renal): > 100 µM
- TGI (SNB-19 CNS): > 100 µM
- TGI (SNB-75 CNS): > 100 µM
- TGI (SR leukemia): > 100 µM
- TGI (SW-620 colon): > 100 µM
- TGI (TK-10 renal): > 100 µM
- TGI (U251 CNS): > 100 µM
- TGI (UACC-257 melanoma): > 100 µM
- TGI (UACC-62 melanoma): > 100 µM
- TGI (UO-31 renal): > 100 µM

Compound: CCOC(CNCCC(=O)OC)OCC
- TGI (786-0 renal): > 10 µM
- TGI (A498 renal): > 10 µM
- TGI (A549 NSCLC): > 10 µM
- TGI (ACHN renal): > 10 µM
- TGI (CAKI-1 renal): > 10 µM
- TGI (CCRF-CEM leukemia): > 10 µM
- TGI (COLO 205 colon): > 10 µM
- TGI (DU-145 prostate): > 10 µM
- TGI (EKVX NSCLC): > 10 µM
- TGI (HCC-2998 colon): > 10 µM
- TGI (HCT-116 colon): > 10 µM
- TGI (HCT-15 colon): > 10 µM
- TGI (HL-60(TB) leukemia): > 10 µM
- TGI (HOP-62 NSCLC): > 10 µM
- TGI (HOP-92 NSCLC): > 10 µM
- TGI (HS 578T breast): > 10 µM
- TGI (HT29 colon): > 10 µM
- TGI (IGROV1 ovarian): > 10 µM
- TGI (K-562 leukemia): > 10 µM
- TGI (KM12 colon): > 10 µM
- TGI (LOX IMVI melanoma): > 10 µM
- TGI (M14 melanoma): > 10 µM
- TGI (MALME-3M melanoma): > 10 µM
- TGI (MCF7 breast): > 10 µM
- TGI (MDA-MB-231 breast): > 10 µM
- TGI (MDA-MB-435): > 10 µM
- TGI (MDA-N): > 10 µM
- TGI (MOLT-4 leukemia): > 10 µM
- TGI (NCI-H226 lung): > 10 µM
- TGI (NCI-H23 lung): > 10 µM
- TGI (NCI-H460 lung): > 10 µM
- TGI (NCI-H522 lung): > 10 µM
- TGI (NCI/ADR-RES ovarian): > 10 µM
- TGI (OVCAR-3 ovarian): > 10 µM
- TGI (OVCAR-4 ovarian): > 10 µM
- TGI (OVCAR-8 ovarian): > 10 µM
- TGI (PC-3 prostate): > 10 µM
- TGI (RPMI-8226 leukemia): > 10 µM
- TGI (RXF 393 renal): > 10 µM
- TGI (SF-268 CNS): > 10 µM
- TGI (SF-295 CNS): > 10 µM
- TGI (SF-539 CNS): > 10 µM
- TGI (SK-MEL-2 melanoma): > 10 µM
- TGI (SK-MEL-28 melanoma): > 10 µM
- TGI (SK-MEL-5 melanoma): > 10 µM
- TGI (SK-OV-3 ovarian): > 10 µM
- TGI (SN12C renal): > 10 µM
- TGI (SNB-19 CNS): > 10 µM
- TGI (SNB-75 CNS): > 10 µM
- TGI (SR leukemia): > 10 µM
- TGI (SW-620 colon): > 10 µM
- TGI (T-47D breast): > 10 µM
- TGI (TK-10 renal): > 10 µM
- TGI (U251 CNS): > 10 µM
- TGI (UACC-257 melanoma): > 10 µM
- TGI (UACC-62 melanoma): > 10 µM
- TGI (UO-31 renal): > 10 µM
